From publication PMC8124774, “Tuning Anti-Biofilm Activity of Manganese(II) Complexes: Linking Biological Effectiveness of Heteroaromatic Complexes of Alcohol, Aldehyde, Ketone, and Carboxylic Acid with Structural Effects and Redox Activity” (International Journal of Molecular Sciences, 2021)
Several values for one entry are separate records, joined by “and”; a condition that tells them apart may be missing. Equal values may be shown once.

What was measured:
[1] = tested on: P. aeruginosa PAO1 biofilm; test: biofilm formation, crystal violet staining assay; format: cell-based, Pseudomonas aeruginosa; details: P. aeruginosa PAO1, vs untreated control
Description: (§1) All bacteria species were cultivated in trypticase soy broth (TSB) medium (Biocorp, Warsaw, Poland) for 18 h at 37 °C with shaking (160 rpm). Overnight cultures of bacteria were diluted 1:100 into fresh TSB medium and then placed in each of the 96 wells of a microtiter transparent plate (Greiner, Monroe, NC, USA). The manganese(II) complexes—[Mn-pyOH-SO4]n, Mn-imCHO-NO3, Mn-imCHO-Cl, Mn-dipyCO-NO3—and the ligands—pyOH, pyCOOH—were prepared by dissolving compounds in distilled water. […] The starting stock solution was of 2-mM concentration.
To evaluate the effect of the compounds on P. aeruginosa biofilm formation, a crystal violet staining assay was used, following previously described protocols. The concentration of the investigated compounds was in the range 0.0625–1 mM. The amount of biofilm formed was determined by measuring the absorbance at λ = 595 nm with the Infinite M200 PRO microplate reader (Tecan, Männedorf, Switzerland). The measurement results, expressed in absorbance units, were converted into percentages to allow the comparison of numerical data obtained in different experiments.

[2] = tested on: Escherichia coli ATCC 8739; test: broth microdilution MIC, E. coli; format: cell-based; details: planktonic cells
Description: (§2) The antimicrobial activities of the heteroaromatic ligands, Mn(II) complexes, and commercially available drug streptomycin were tested against standard bacterial strains: Staphylococcus aureus ATCC 6538P, Escherichia coli ATCC 8739, Pseudomonas aeruginosa PAO1 (biofilm model strain), and Pseudomonas aeruginosa LES B58 (clinical isolate). The P. aeruginosa PAO1 and LES B58 isolates were derived from the International Pseudomonas aeruginosa Reference Panel (http://bccm.belspo.be/about-us/bccm-lmg, accessed on 30 March 2021).
as §1
(§3) The quantitative assay of the antibacterial activity was performed by the broth microdilution method, in 96-well microtiter plates, in order to establish the minimum inhibitory concentration (MIC). To this purpose, serial two-fold dilutions of the compounds ranging between 1 and 0.0625 mM were made. The details of the experiment were presented in our previous paper.

[3] = tested on: Pseudomonas aeruginosa PAO1; test: broth microdilution MIC, P. aeruginosa PAO1; format: cell-based; details: P. aeruginosa PAO1, planktonic cells
Description: as §2, §1, §3

[4] = tested on: Pseudomonas aeruginosa LES B58; test: broth microdilution MIC, P. aeruginosa LES B58; format: cell-based; details: P. aeruginosa LES B58, planktonic cells
Description: as §2, §1, §3

[5] = tested on: Staphylococcus aureus ATCC 6538P; test: broth microdilution MIC, S. aureus; format: cell-based; details: S. aureus, planktonic cells
Description: as §2, §1, §3

| Structure (SMILES) | % Inhibit. Biofilm (0.25 mM) [1] [%] | % Inhibit. Biofilm (0.5 mM) [1] [%] | MIC [2] | MIC [3] | MIC [4] | MIC [5] |
| --- | --- | --- | --- | --- | --- | --- |
| Cc1[nH]cnc1C=O.Cc1[nH]cnc1C=O.O=[N+]([O-])[O-].O=[N+]([O-])[O-].[Mn+2] [Mn-imCHO-NO3] | 52 | 56 | > 1 mM and > 399 μg/ml | > 1 mM and > 399 μg/ml | > 1 mM and > 399 μg/ml | – |
| O=[N+]([O-])[O-].O=[N+]([O-])[O-].OCc1ccccn1.OCc1ccccn1.[Mn+2] [Mn-pyOH-NO3] | 49 | 54 | > 1 mM and > 397 μg/ml | > 1 mM and > 397 μg/ml | > 1 mM and > 397 μg/ml | > 1 mM and > 397 μg/ml |
